Laboratory results taken from patent publication US11834431B2, “Crystals of cyclic amine derivative and pharmaceutical use thereof” (Toray Industries, Inc., priority 2016, dated 2023).

Legend:
[1] = Evaluation of hygroscopicity (equilibrium moisture measurement); format: physicochemical; conditions: for Weight increase: humidification with an increase in relative humidity from 5% to 65%; for Weight increase / Change in appearance: 30° C.; for Change in appearance: humidification
Procedure: Equilibrium moisture measurement was performed on Form A crystal and the amorphous matter of compound (I) under the following conditions using a fully automated symmetric vapor sorption analyzer (TA Instruments Inc.; VTI-SA+). […] The change in appearance was also observed.

[2] = system: spinal nerve ligation model rats (neuropathic pain model rats); assay: Analgesic effect on allodynia in spinal nerve ligation model rats (von Frey, 50% response threshold); format: in vivo, rat; conditions: measured 3 hours after administration, 8 days after ligation, compared to negative control group
Procedure: Analgesic effects of the crystal of compound (I) or the pharmacologically acceptable salt thereof upon neuropathic pain were evaluated using spinal nerve ligation model rats (Kim and Chung, Pain, 1992, vol. 50, p. 355). Form A crystal of compound (I) was used as a crystal of compound (I) or the pharmacologically acceptable salt thereof for evaluation.
The above model rats were prepared as follows. In experiments, 6-to 7-week-old SD male rats were used for 5 to 7 cases per group, and the lumbar skin and muscle of each rat were dissected to expose the L5 and L6 […] under inhalation anesthesia with isoflurane. After ligating the L5 and L6 spinal nerves with silk suture, the wound of each rat was sutured. Thus, a nerve ligation group was prepared. The group in which the nerve was exposed but not ligated was determined to be a sham surgery group.
Allodynia observed in spinal nerve ligation model rats was measured using a von Frey filaments according to a method described in a known publication (Chaplan et al., J. Neurosci. Methods, 1994, vol. 53, p. 55) and a 50% response threshold (g) was determined. Eight days after the ligation surgery, allodynia of the nerve ligation group was measured before oral administration of Form A crystal of compound (I). Rats with a 50% response threshold (average value of the right hind paw and the left hind paw) of 2 g to less than 6 g were considered to have developed allodynia. The rats were divided as neuropathic pain model rats into groups such that there was no significant difference in the 50% response threshold between groups. Allodynia was measured 3 hours after the oral administration of Form A crystal of compound (I), and the analgesic effect was evaluated. Pregabalin was used as a positive control.
Form A crystal of compound (I) was dissolved in water for injection (distilled water) to result in concentrations of 5, 10, and 20 mg/mL, and orally administered in a dose volume of 1 mL per kg body weight. Pregabalin was dissolved in water for injection (distilled water) to result in a concentration of 10 mg/mL and orally administered in a dose volume of 1 mL per kg of body weight. Water for injection (distilled water) was orally administered to the sham surgery group. A group in which water for injection (distilled water) was orally administered to rats in the nerve ligation group was defined as a negative control group.
The horizontal axis represents the solution to be administered in each group, namely, the nerve ligation group or sham surgery group, and the vertical axis represents the 50% response threshold (g) (mean±standard error, n=5 to 7). […]

[3] = listed as Form A crystal of compound (I)

CN(C)C1CCN(C(=O)C[C@H](O)c2nccn2C)CC1 [Form A crystal, (S)-1-(4-(dimethylamino)piperidin-1-yl)-3-hydroxy-3-(1-methyl-1H-imidazol-2-yl)propan-1-one]
Weight increase [1]: 0.1% | Weight increase [1, 3]: did not experience an increase in weight | Change in appearance [1]: Maintenance of white powder | Change in appearance [1, 3]: did not deliquesce | change in the crystal form after the hygroscopicity evaluation test ([1]; powder X-ray diffraction after humidification): did not experience a change in the crystal form | improvement of allodynia (50% response threshold) ([2]; oral 5 mg/kg): significant improvement | improvement of allodynia (50% response threshold) ([2]; oral 10 mg/kg): significant improvement | improvement of allodynia (50% response threshold) ([2]; oral 20 mg/kg): significant improvement
